Data reported in patent publication US20230391783A1, “COMPOUND CONTAINING 2,4-THIAZOLE RING, PREPARATION METHOD THEREFOR, AND APPLICATION THEREOF” (SHANDONG UNIVERSITY, priority 2021, published 2023).

Test system: lymphocytes (fresh spleen cells)
Test: Lymphocyte proliferation assay (ConA-induced spleen cells)
Assay type: cell-based, rat
Details: 48 hours; for Inhibition rate (%): lymphocyte proliferation induced with 5 μg/mL ConA, test concentration not given; for IC50: Rattus norvegicus, inhibition of lymphocyte proliferation, 5 μg/mL ConA
Description: Lymphocytotoxicity test: rats were euthanized by spinal dislocation method, their spleens were aseptically removed and ground to make a single cell suspension. After removing red blood cells with 2 mL of red blood cell lysis buffer, the cell concentration was adjusted to 2×10^6 cells/mL using RPMI-1640 medium containing 10% fetal bovine serum (FBS). Next, 100 μL of the 2×10^6 cells/mL cell suspension and 100 μL of the appropriate concentration of the tested compound were added to each well of a 96-well plate, and the plate was incubated at 37° C. with 5% CO2 for 48 hours. At the end of the incubation period, 10 μL of CCK8 was added to each well, and the plate was returned to the incubator for 5-7 hours. The OD450 value was then measured at 450 nm using an enzyme-linked immunosorbent assay reader.
Lymphocyte proliferation assay: fresh spleen cells at a concentration of 2×10^6 cells/mL were incubated for 48 hours in an incubator maintained at 37° C. and 5% CO2 for 48 hours, and the culture medium was induced for cell proliferation with 5 μg/mL of ConA, and the appropriate concentration of the tested compound was added to test its inhibitory activity on lymphocyte proliferation. The test results of some compounds are shown in the table below and figures accompanying the application: […]

Compound	Inhibition rate (%)	IC50
CC(=O)NCCNC(=O)c1csc(C(=O)c2c[nH]c3ccccc23)n1 [IIA-12]	27.93%	–
Cc1c(COC(=O)c2csc(C(=O)c3c[nH]c4ccccc34)n2)cccc1-c1ccccc1 [IIA-11]	25.08%	–
O=C(c1nc(C(=O)N2CCC[C@H]2c2ccccc2)cs1)c1c[nH]c2ccccc12 [IIA-18]	50.6%	–
O=C(c1csc(-c2cnn3cccnc23)n1)N1CCC[C@H]1c1ccccc1 [IA-9]	58.26%	399 ± 15.2 nM
O=C(OCc1cn(CCCCCCBr)nn1)c1csc(C(=O)c2c[nH]c3ccccc23)n1 [IIB-3]	39.79%	468 ± 20.1 nM
O=C(NCCc1cccnc1)c1csc(-c2cnn3cccnc23)n1 [IA-12]	83.63%	236 ± 17.2 nM
CC(C)=CCC/C(C)=C/CNC(=O)c1csc(-c2cnn3cccnc23)n1 [IA-24]	55.71%	457 ± 30.6 nM
CCC(CCC(C)C1CCC2C3CC=C4CC(OC(=O)c5csc(C(=O)c6c[nH]c7ccccc67)n5)CCC4(C)C3CCC12C)C(C)C (stereo not shown) [IIA-9]	48.2%	–
O=C(NCCc1ccncc1)c1csc(C(=O)c2c[nH]c3ccccc23)n1 [IIA-20]	42.64%	–
O=C(NCc1ccc(F)cc1F)c1csc(C(=O)c2c[nH]c3ccccc23)n1 [IIA-14]	37.99%	–
CC(C)=CCOC(=O)c1csc(C(=O)c2c[nH]c3ccccc23)n1 [IIA-4]	48.95%	–
O=C(c1nc(C(=O)N2CCC[C@H]2c2ccncc2)cs1)c1c[nH]c2ccccc12 [IIA-21]	54.35%	–
Cc1cnc2c(-c3nc(C(=O)NCCc4ccccn4)cs3)cnn2c1 [IA-25]	37.24%	–
O=C(NCC(O)C(F)(F)F)c1csc(-c2cnn3cccnc23)n1 (stereo not shown) [IA-19]	41.89%	–
O=C(Nc1cccnc1)c1csc(C(=O)c2c[nH]c3ccccc23)n1 [IIA-17]	59.31%	–
CC1CCC2(OC1)OC1CC3C4CC=C5CC(OC(=O)c6csc(C(=O)c7c[nH]c8ccccc78)n6)CCC5(C)C4CCC3(C)C1C2C (stereo not shown) [IIA-7]	38.74%	–
O=C(c1csc(-c2cnn3cccnc23)n1)N1CCN(c2cccnc2)CC1 [IA-23]	60.57%	350 ± 17 nM
O=C(NC(CO)C(=O)O)c1csc(C(=O)c2c[nH]c3ccccc23)n1 (stereo not shown) [IIA-24]	59.91%	421 ± 19.9 nM
CC(C)CCCC(C)C1CCC2C3CC=C4CC(OC(=O)c5csc(C(=O)c6c[nH]c7ccccc67)n5)CCC4(C)C3CCC12C (stereo not shown) [IIA-8]	50.45%	–
O=C(NCc1cncnc1)c1csc(-c2cnn3cccnc23)n1 [IA-22]	32.73%	–

Compound	Inhibition rate (%)	IC50
O=C(OCc1cn(CCc2ccccc2)nn1)c1csc(C(=O)c2c[nH]c3ccccc23)n1 [IIB-1]	45.65%	–
O=C(NCCCN1CCCC1)c1csc(C(=O)c2c[nH]c3ccccc23)n1 [IIA-15]	28.53%	–
CC1CCC2(OC1)OC1CC3C4CC=C5CC(NC(=O)c6csc(C(=O)c7c[nH]c8ccccc78)n6)CCC5(C)C4CCC3(C)C1C2C (stereo not shown) [IIA-10]	23.57%	–
C=CC[C@@H]1/C=C(\C)C[C@H](C)C[C@H](OC)[C@H]2O[C@@](O)(C(=O)C(=O)N3CCCC[C@H]3C(=O)O[C@H](/C(C)=C/[C@@H]3CC[C@@H](O)[C@H](OC)C3)[C@H](C)[C@@H](O)CC1=O)[C@H](C)C[C@@H]2OC [Tacrolimus, reference compound]	57.54%	504 ± 16.2 nM
CC(C)=CCOC(=O)c1csc(-c2cnn3cccnc23)n1 [IA-4]	28.23%	438 ± 12.3 nM
O=C(NC1CCC(C(F)(F)F)CC1)c1csc(-c2cnn3cccnc23)n1 (stereo not shown) [IA-20]	42.49%	–
O=C(NCc1cccnc1)c1csc(C(=O)c2c[nH]c3ccccc23)n1 [IIA-6]	56.46%	479 ± 14.2 nM
O=C(NCc1ccccc1)c1csc(C(=O)c2c[nH]c3ccccc23)n1 [IIA-19]	46.55%	–
COC(=O)C1CCCCN1C(=O)c1csc(C(=O)c2c[nH]c3ccccc23)n1 (stereo not shown) [IIA-25]	49.85%	–
O=C(c1csc(-c2cnn3cccnc23)n1)N1CCC[C@H]1c1cc(F)ccc1F [IA-17]	46.55%	436 ± 33.4 nM
O=C(NCC(F)(F)F)c1csc(C(=O)c2c[nH]c3ccccc23)n1 [IIA-27]	51.8%	–
C#COC(=O)c1csc(C(=O)c2c[nH]c3ccccc23)n1 [IIA-3]	47.15%	–
O=C(NCCC(F)(F)F)c1csc(C(=O)c2c[nH]c3ccccc23)n1 [IIA-29]	43.54%	–
O=C(c1csc(-c2cnn3cccnc23)n1)N1CCC[C@H]1c1cccnc1 [IA-1]	81.38%	210 ± 8.87 nM
COC(=O)C(CO)NC(=O)c1csc(C(=O)c2c[nH]c3ccccc23)n1 (stereo not shown) [IIA-13]	43.99%	–
O=C(c1csc(-c2cnn3cccnc23)n1)N1CCC[C@H]1c1ccncc1 [IA-13]	59.01%	410 ± 33.5 nM
O=C(c1nc(C(=O)N2CCC[C@H]2c2cccnc2)cs1)c1c[nH]c2ccccc12 [IIA-1]	65.32%	–
O=C(Nc1ccccc1)c1csc(-c2cnn3cccnc23)n1 [IA-6]	40.69%	–
O=C(c1nc(C(=O)N2C[C@H](O)C[C@H]2C(=O)O)cs1)c1c[nH]c2ccccc12 [IIA-23]	58.56%	439 ± 25.3 nM
O=C(NCc1cccnc1)c1csc(NC(=O)c2cnn3cccnc23)n1 [IA-2]	65.17%	439 ± 24.2 nM

Compound	Inhibition rate (%)	IC50
COC(=O)[C@@H]1C[C@@H](O)CN1C(=O)c1csc(-c2cnn3cccnc23)n1 [IA-15]	30.78%	–
COC(=O)C1CCCCN1C(=O)c1csc(-c2cnn3cccnc23)n1 (stereo not shown) [IA-16]	28.83%	–
O=C(c1nc(C(=O)N2CCCCC2C(=O)O)cs1)c1c[nH]c2ccccc12 (stereo not shown) [IIA-22]	53.75%	479 ± 9.88 nM
Nc1ccccc1C(=O)CC(N)C(=O)O (stereo not shown) [KYN, kynurenine, reference compound]	51.65%	–
COC(=O)c1csc(C(=O)c2c[nH]c3ccccc23)n1 [ITE, reference compound]	57.96%	–
O=C(NCc1ccccc1)c1csc(-c2cnn3cccnc23)n1 [IA-11]	70.42%	263 ± 13.4 nM
COC(=O)[C@@H]1C[C@@H](O)CN1C(=O)c1csc(C(=O)c2c[nH]c3ccccc23)n1 [IIA-26]	45.05%	–
CC(C)=CCC/C(C)=C/COC(=O)c1csc(-c2cnn3cccnc23)n1 [IA-7]	52.55%	487 ± 18.3 nM
O=C(Nc1cccnc1)c1csc(-c2cnn3cccnc23)n1 [IA-10]	59.61%	421 ± 21.1 nM
O=C(c1nc(C(=O)N2CCCC2c2cc(F)ncc2F)cs1)c1c[nH]c2ccccc12 (stereo not shown) [IIA-28]	54.05%	–
CC(C)=CCC/C(C)=C/COC(=O)c1csc(C(=O)c2c[nH]c3ccccc23)n1 [IIA-5]	57.51%	–
O=C(OCc1cn(CC23CC4CC(CC(C4)C2)C3)nn1)c1csc(C(=O)c2c[nH]c3ccccc23)n1 [IIB-5]	59.01%	–
O=C(NCCc1ccccn1)c1csc(-c2cnn3cccnc23)n1 [IA-21]	44.14%	488 ± 22 nM
O=C(NCCC(F)(F)F)c1csc(-c2cnn3cccnc23)n1 [IA-18]	43.09%	–
O=C(OCc1cn(Cc2ccc3ccccc3c2)nn1)c1csc(C(=O)c2c[nH]c3ccccc23)n1 [IIB-2]	49.4%	–
O=C(NCc1ccc(Cl)cc1Cl)c1csc(-c2cnn3cccnc23)n1 [IA-8]	43.39%	–
O=C(NCc1ccc(F)cc1F)c1csc(-c2cnn3ccccc23)n1 [IA-5]	47.15%	–
CC(C)=CCC/C(C)=C/CNC(=O)c1csc(C(=O)c2c[nH]c3ccccc23)n1 [IIA-30]	26.88%	–
CC(C)=CCC/C(C)=C/CC/C(C)=C/COC(=O)c1csc(C(=O)c2c[nH]c3ccccc23)n1 [IIA-2]	25.83%	–
O=C(OCc1cn(CCCCCCO)nn1)c1csc(C(=O)c2c[nH]c3ccccc23)n1 [IIB-4]	21.17%	–
